Measured values published in ChEMBL document CHEMBL6096662, “Discovery and structure-activity relationship study of nicotinamide derivatives as DNA demethylase ALKBH2 inhibitors” (Eur J Med Chem, 2025).
Values belong to the molecule of their own block, whether it stands above or below them.

Legend:
[1] = biological target: T1, DNA oxidative demethylase ALKBH2 (Homo sapiens, UniProt Q6NS38); assay: Inhibition of ALKBH2 (56 to 261 residues)(unknown origin) extracted from Escherichia coli BL21 (DE3) using 5'-GAAGACCT(1meA)GGCGTCC-3'/5'- CTGGGACGCCTAGGTCTTCACTG-3' as substrate incubated for 30 mins by FP assay
T1 sequence (Q6NS38 whole entry): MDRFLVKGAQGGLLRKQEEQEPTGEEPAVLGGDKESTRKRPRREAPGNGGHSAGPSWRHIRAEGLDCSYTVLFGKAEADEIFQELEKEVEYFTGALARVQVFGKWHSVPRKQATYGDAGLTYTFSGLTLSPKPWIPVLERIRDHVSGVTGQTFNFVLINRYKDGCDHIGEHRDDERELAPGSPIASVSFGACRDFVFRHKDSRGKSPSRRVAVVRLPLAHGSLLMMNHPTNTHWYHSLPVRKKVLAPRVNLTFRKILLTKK

U-87 MG = assay: Anti-viability activity against human U87 cells by MTT assay; type: functional, cell-based, U-87MG ATCC
[2] = biological target: T1, DNA oxidative demethylase ALKBH2; assay: Binding affinity to ALKBH2 (56 to 261 residues)(unknown origin) assessed as dissociation constant by ITC assay
[3] = biological target: Alpha-ketoglutarate-dependent dioxygenase FTO (Homo sapiens, UniProt Q9C0B1); assay: Inhibition of demethylase activity of FTO (35 to 505 residues)(unknown origin) extracted from Escherichia coli BL21 (DE3) using 6meA dsDNA as substrate incubated for 30 mins by methylation-sensitive restriction enzyme digestion assay
Alpha-ketoglutarate-dependent dioxygenase FTO, sequence (Q9C0B1 whole entry, the tested form may be a part): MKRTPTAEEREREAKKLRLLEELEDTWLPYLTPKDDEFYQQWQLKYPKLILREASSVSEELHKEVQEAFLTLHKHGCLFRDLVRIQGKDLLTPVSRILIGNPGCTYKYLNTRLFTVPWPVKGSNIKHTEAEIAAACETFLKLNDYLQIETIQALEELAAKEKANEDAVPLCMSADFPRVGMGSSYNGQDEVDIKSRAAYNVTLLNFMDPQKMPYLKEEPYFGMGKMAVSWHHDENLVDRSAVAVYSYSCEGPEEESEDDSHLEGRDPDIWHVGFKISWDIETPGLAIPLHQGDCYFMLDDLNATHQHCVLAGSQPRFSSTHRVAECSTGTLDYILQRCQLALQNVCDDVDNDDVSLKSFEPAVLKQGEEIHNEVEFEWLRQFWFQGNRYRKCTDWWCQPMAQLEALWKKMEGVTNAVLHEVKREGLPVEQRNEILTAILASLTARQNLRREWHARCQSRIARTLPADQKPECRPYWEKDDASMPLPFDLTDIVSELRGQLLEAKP

[4] = biological target: T1, DNA oxidative demethylase ALKBH2; assay: Inhibition of ALKBH2 (56 to 261 residues)(unknown origin) extracted from Escherichia coli BL21 (DE3) using 5meC DNA as substrate by FP assay
[5] = biological target: T1, DNA oxidative demethylase ALKBH2; assay: Inhibition of demethylase activity of ALKBH2 (56 to 261 residues)(unknown origin) extracted from Escherichia coli BL21 (DE3) using 1meA dsDNA as substrate incubated for 30 mins in presence of alpha-KG by methylation-sensitive restriction enzyme digestion assay
[6] = biological target: T2, Alpha-ketoglutarate-dependent dioxygenase alkB homolog 3 (Homo sapiens, UniProt Q96Q83); assay: Inhibition of demethylase activity of ALKBH3 (70 to 286 residues)(unknown origin) extracted from Escherichia coli BL21 (DE3) using 1meA dsDNA as substrate incubated for 30 mins by methylation-sensitive restriction enzyme digestion assay
T2 sequence (Q96Q83 whole entry): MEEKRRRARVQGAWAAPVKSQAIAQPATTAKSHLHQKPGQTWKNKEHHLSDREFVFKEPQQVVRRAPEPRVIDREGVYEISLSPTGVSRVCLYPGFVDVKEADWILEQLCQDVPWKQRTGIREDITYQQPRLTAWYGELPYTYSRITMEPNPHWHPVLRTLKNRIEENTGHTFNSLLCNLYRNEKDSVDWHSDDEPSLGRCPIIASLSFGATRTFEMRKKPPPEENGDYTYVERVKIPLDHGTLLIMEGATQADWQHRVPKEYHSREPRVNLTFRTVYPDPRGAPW

[7] = Inhibition of demethylase activity of ALKBH1 (19 to 369 residues)(unknown origin) extracted from Escherichia coli BL21 (DE3) using 6meA unpaired dsDNA as substrate incubated for 30 mins by methylation-sensitive restriction enzyme digestion assay; parameters: species or system Homo sapiens
RNA demethylase ALKBH5 = RNA demethylase ALKBH5 (Homo sapiens, UniProt Q6P6C2); assay: Inhibition of demethylase activity of ALKBH5 (66 to 292 residues)(unknown origin) extracted from Escherichia coli BL21 (DE3) using 6meA dsDNA as substrate incubated for 30 mins by methylation-sensitive restriction enzyme digestion assay
RNA demethylase ALKBH5, sequence (Q6P6C2 whole entry, the tested form may be a part): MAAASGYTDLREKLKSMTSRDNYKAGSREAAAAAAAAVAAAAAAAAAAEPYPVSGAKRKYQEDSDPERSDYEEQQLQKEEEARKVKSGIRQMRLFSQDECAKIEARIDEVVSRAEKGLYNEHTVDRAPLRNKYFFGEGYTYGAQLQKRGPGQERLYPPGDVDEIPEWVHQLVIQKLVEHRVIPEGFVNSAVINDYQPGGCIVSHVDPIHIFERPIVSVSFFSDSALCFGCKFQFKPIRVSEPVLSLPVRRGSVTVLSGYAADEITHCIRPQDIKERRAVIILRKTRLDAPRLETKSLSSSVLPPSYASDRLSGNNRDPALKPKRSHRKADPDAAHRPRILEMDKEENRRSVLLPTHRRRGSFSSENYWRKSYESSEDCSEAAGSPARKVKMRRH

IC50 [1]: 86700 nM
SMILES: O=C(O)c1cnn(-c2ccccc2)c1

Kd [2]: 226 nM | IC50 [3]: > 200000 nM | IC50 (U-87 MG): 103000 nM | IC50 [4]: 47 nM | IC50 [5]: 1480 nM | IC50 [6]: > 200000 nM | IC50 [7]: > 200000 nM | IC50 (RNA demethylase ALKBH5): > 200000 nM | IC50 [1]: 31 nM
SMILES: CC(C)(C)C(NC(=O)c1ccc(-n2cc(C(=O)O)cn2)nc1)c1ccccc1 (stereo not drawn)

Continued, molecule first:

SMILES: O=C(O)c1cnn(-c2ccc(C(=O)N3CCCC(c4ccccc4)C3)cn2)c1 (stereo not drawn)
IC50 [1]: 73 nM

SMILES: COC1CCN(C(=O)c2ccc(-n3cc(C(=O)O)cn3)nc2)C1 (stereo not drawn)
IC50 [1]: 378 nM

SMILES: CCOC(=O)c1cnn(-c2ccc(C(=O)NC(c3ccccc3)C(C)(C)C)cn2)c1 (stereo not drawn)
IC50 (U-87 MG): 4560 nM
